Data from patent US12370187B2, “Composition containing antitumor drug, and preparation method thereof and use thereof” (KUNSHAN XINYUNDA BIOTECH CO., LTD., priority 2021, dated 2025).
Where a name gives a salt, the structure may show the parent alone. Read-outs that look alike come from different tables or passages of the source.

Columns and labels:
[1] = tested on: human colon cancer cell line SW620; assay: In vivo pharmacodynamic study in SW620 model (Example 34); conditions: 60 mg/kg iv QW × 4
[2] = tested on: human colon cancer cell line SW620; conditions: for RTV (D 41) / T/C (%) RTV / T/C (%) TW / Tumor Weight (mg) (D 41): D 41
[3] = tested on: human colon cancer cell line HCT116; conditions: for RTV / Tumor Weight: D 43
Description: One week after the last dose, tumors were taken from all mice, weighed, and photographed.

[4] = tested on: human triple-negative breast cancer MDA-MB-231; assay: Anti-breast tumor activity, subcutaneously implanted MDA-MB-231 (Example 22); assay type: in vivo, BALB/c nude mice; conditions: Protocol I; 60 mg/kg iv
[5] = tested on: human ovarian cancer cell line SKOV-3; conditions: for RTV / Tumor Weight: D 42
Description: SKOV-3 tumor masses were subcutaneously inoculated to 80 BALB/c nude mice.

human colon cancer HT-29 = assay: Anti-colon cancer activity, subcutaneously implanted HT-29 (Example 23); assay type: in vivo, BALB/c nude mice; conditions: Protocol I; 60 mg/kg iv
[6] = tested on: human triple-negative breast cancer cell line MDA-MB-231; assay: In vivo pharmacodynamic study on MDA-MB-231 tumor (Example 24); conditions: for Body weight increase compared with before administration: mouse, in vivo
Experimental: One week after the last administration, tumors were taken from all the mice and weighed.
The clinical symptoms observed during the experiment were recorded in the raw data. Tumor volume was calculated by the following formula: […]
Relative tumor proliferation rate (T/C (%)) represents a ratio in percentage of relative tumor volumes or tumor weights of a treatment group and a control group at a time point, which was calculated by the following formula: […]
Relative tumor inhibition rate (TGI (%)) was calculated by the following formula: […]

tumor cells = conditions: Zhang et al. 2004; cited from earlier work
[7] = CPT-11 80 mg/kg iv QW × 4, 2 surviving animals

CCc1c2c(nc3ccc(OC(=O)N4CCC(N5CCCCC5)CC4)cc13)-c1cc3c(c(=O)n1C2)COC(=O)[C@]3(O)CC [CPT-11, irinotecan hydrochloride]
T/C (%) TV [1]: 8%
T/C (%) TW [1]: 7%
TW (mg) (mean ± SEM) [1]: 99 ± 43 mg
Body Weight (g, mean ± SEM) Day 11 ([1]; Day 11): 18.5 ± 0.6 g
TV (mm^3) Day 11 (mean ± SEM) ([1]; Day 11): 157 ± 18 mm^3
Body Weight (g, mean ± SEM) Day 39 ([1]; Day 39): 19.2 ± 0.7 g
TV (mm^3) Day 39 (mean ± SEM) ([1]; Day 39): 154 ± 57 mm^3
Body Weight Change (%) ([1]; Day 39 vs Day 11): +3.8%
RTV (D 41) ([2]; 60 mg/kg): 4.69 ± 1.12
T/C (%) RTV ([2]; 60 mg/kg): 28%
T/C (%) TW ([2]; 60 mg/kg): 27%
Tumor Weight (mg) (D 41) ([2]; 60 mg/kg): 465 ± 91 mg
RTV (D 41) ([2]; 80 mg/kg): 5.95 ± 1.22
T/C (%) RTV ([2]; 80 mg/kg): 36%
T/C (%) TW ([2]; 80 mg/kg): 28%
Tumor Weight (mg) (D 41) ([2]; 80 mg/kg): 495 ± 91 mg
Body weight reduction at the end of the experiment compared with before administration ([2]; CPT-11 high dose (80 mg/kg)): 5.810%
Body weight reduction at the end of the experiment compared with before administration ([2]; CPT-11 low dose (60 mg/kg)): 0.99%
Reduction in body weight at the end of the experiment compared to before administration ([3]; CPT-11 60 mg/kg): 14.41%
T/C (%) RTV ([3]; CPT-11 60 mg/kg iv QW × 4): 35%
T/C (%) TW ([3]; CPT-11 60 mg/kg iv QW × 4): 26%
RTV ([3]; CPT-11 60 mg/kg iv QW × 4): 4.42 ± 1.05
Tumor Weight ([3]; CPT-11 60 mg/kg iv QW × 4): 370 ± 87 mg
Reduction in body weight at the end of the experiment compared to before administration ([3]; CPT-11 80 mg/kg): 16.00%
T/C (%) RTV ([3]; CPT-11 80 mg/kg iv QW × 4): 16%
T/C (%) TW ([3]; CPT-11 80 mg/kg iv QW × 4): 12%
RTV ([3]; CPT-11 80 mg/kg iv QW × 4): 1.95 ± 0.31
Tumor Weight ([3]; CPT-11 80 mg/kg iv QW × 4): 173 ± 34 mg
Tumor Inhibition Rate [4]: 71%
T/C (%) RTV ([5]; CPT-11 60 mg/kg iv QW × 4): 64%
T/C (%) TW ([5]; CPT-11 60 mg/kg iv QW × 4): 67%
RTV ([5]; CPT-11 60 mg/kg iv QW × 4): 9.20 ± 0.79
Tumor Weight ([5]; CPT-11 60 mg/kg iv QW × 4): 1179 ± 150 mg
T/C (%) RTV ([5]; CPT-11 80 mg/kg iv QW × 4): 79%
T/C (%) TW ([5]; CPT-11 80 mg/kg iv QW × 4): 95%
RTV [5, 7]: 11.44 ± 0.21
Tumor Weight [5, 7]: 1664 ± 258 mg
Animals died ([5]; CPT-11 80 mg/kg, 8 animals): 6
Body weight increase at the end of the experiment ([5]; CPT-11 high dose (80 mg/kg), two living animals): 11.94%
Body weight increase at the end of the experiment ([5]; CPT-11 low dose (60 mg/kg)): 6.97%
Tumor Inhibition Rate (human colon cancer HT-29): 47%
Animal death ([6]; CPT-11 60 mg/kg): No animal died
T/C (%) RTV ([6]; CPT-11 60 mg/kg iv QW × 3): 24%
T/C (%) TW ([6]; CPT-11 60 mg/kg iv QW × 3): 28%
RTV ([6]; CPT-11 60 mg/kg iv QW × 3, D33): 4.59 ± 1.04
T/C (%) RTV ([6]; CPT-11 80 mg/kg iv QW × 3): 13%
T/C (%) TW ([6]; CPT-11 80 mg/kg iv QW × 3): 16%
RTV ([6]; CPT-11 80 mg/kg iv QW × 3, D33): 2.46 ± 0.41
Tumor Weight ([6]; CPT-11 80 mg/kg iv QW × 3, D33): 391 ± 143 mg
Animal death ([6]; CPT-11 80 mg/kg, 7 animals): one animal died
Body weight increase compared with before administration ([6]; 60 mg/kg): 2.41%
Body weight increase compared with before administration ([6]; 80 mg/kg): 1.950%

CCc1c2c(nc3ccc(O)cc13)-c1cc3c(c(=O)n1C2)COC(=O)[C@]3(O)CC [SN-38, 7-ethyl-10-hydroxycamptothecin]
Efficacy on some tumor cells relative to CPT-11 (tumor cells): 100-1000 times
